Literature values, collected in article PMC9516332 (Frontiers in Oncology, 2022).
Where two headings read alike, the source gives them in different places.

Columns and labels:
[1] = molecular target: panel of 255 wild-type kinases (Homo sapiens, UniProt P19784); conditions: kinase CK2α2/β, 1 µmol/L single concentration, cited from earlier work
[2] = molecular target: panel of 255 wild-type kinases (Homo sapiens, UniProt O94804); conditions: kinase LOK, 1 µmol/L single concentration, cited from earlier work
[3] = molecular target: panel of 255 wild-type kinases (Homo sapiens, UniProt Q14012); conditions: CaMK1α kinase assay, 1 µmol/L single concentration, cited from earlier work
[4] = molecular target: panel of 255 wild-type kinases (Homo sapiens, UniProt P27448); conditions: MARK3, 1 µmol/L single concentration, cited from earlier work
[5] = molecular target: T1, panel of 255 wild-type kinases (Homo sapiens, UniProt Q06418); conditions: kinase TYRO3, 1 µmol/L single concentration, cited from earlier work
T1 sequence (Q06418 41-890): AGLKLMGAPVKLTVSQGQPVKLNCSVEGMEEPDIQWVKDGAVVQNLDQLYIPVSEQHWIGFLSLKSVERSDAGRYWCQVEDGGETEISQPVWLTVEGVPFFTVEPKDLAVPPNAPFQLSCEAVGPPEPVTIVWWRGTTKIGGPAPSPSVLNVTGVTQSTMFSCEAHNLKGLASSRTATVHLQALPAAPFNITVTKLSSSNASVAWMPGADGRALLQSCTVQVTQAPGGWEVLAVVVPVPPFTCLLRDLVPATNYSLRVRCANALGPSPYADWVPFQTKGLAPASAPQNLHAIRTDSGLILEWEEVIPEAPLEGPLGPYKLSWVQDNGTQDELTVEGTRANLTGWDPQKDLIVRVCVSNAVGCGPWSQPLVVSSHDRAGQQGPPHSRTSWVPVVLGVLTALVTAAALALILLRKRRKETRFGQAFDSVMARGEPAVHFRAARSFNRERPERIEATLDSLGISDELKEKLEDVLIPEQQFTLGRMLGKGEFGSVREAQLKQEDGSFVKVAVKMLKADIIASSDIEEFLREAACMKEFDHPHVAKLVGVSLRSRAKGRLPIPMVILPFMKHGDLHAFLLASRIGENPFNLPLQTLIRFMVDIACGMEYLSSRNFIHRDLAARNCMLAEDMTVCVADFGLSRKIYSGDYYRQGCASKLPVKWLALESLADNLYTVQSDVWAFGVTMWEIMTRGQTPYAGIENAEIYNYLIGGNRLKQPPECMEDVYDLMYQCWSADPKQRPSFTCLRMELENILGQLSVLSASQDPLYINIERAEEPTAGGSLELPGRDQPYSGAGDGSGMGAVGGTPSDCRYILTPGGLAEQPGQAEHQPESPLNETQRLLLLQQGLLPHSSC

[6] = molecular target: panel of 255 wild-type kinases (Homo sapiens, UniProt O75116); conditions: kinase ROCK2, 1 µmol/L single concentration, cited from earlier work
[7] = molecular target: panel of 255 wild-type kinases (Homo sapiens, UniProt Q9UM73); conditions: ALK kinase assay, 1 µmol/L single concentration, cited from earlier work
[8] = molecular target: panel of 255 wild-type kinases (Homo sapiens, UniProt P14616); conditions: kinase IRR, 1 µmol/L single concentration, cited from earlier work
[9] = molecular target: T2, panel of 255 wild-type kinases (Homo sapiens, UniProt O15111); conditions: kinase IKKα, 1 µmol/L single concentration, cited from earlier work
T2 sequence (O15111 1-745): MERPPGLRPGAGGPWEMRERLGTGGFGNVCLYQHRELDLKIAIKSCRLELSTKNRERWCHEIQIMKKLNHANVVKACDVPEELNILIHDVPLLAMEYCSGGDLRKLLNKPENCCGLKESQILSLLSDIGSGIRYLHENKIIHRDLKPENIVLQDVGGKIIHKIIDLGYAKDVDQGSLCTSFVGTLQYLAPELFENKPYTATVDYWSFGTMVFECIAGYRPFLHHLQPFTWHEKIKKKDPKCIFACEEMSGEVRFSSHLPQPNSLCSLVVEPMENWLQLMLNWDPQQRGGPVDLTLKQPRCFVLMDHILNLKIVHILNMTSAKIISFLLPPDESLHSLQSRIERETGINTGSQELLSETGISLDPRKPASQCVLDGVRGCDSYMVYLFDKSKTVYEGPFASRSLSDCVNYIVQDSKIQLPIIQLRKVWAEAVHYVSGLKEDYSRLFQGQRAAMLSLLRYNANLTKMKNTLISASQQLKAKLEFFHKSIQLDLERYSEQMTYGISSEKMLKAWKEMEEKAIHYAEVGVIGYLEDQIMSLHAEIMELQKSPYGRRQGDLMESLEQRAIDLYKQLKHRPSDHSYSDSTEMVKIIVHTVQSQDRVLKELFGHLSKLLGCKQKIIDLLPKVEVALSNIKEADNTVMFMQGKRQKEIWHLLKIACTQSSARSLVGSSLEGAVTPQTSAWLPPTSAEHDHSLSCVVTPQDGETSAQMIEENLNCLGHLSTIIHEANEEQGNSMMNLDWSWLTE

[10] = molecular target: panel of 255 wild-type kinases (Homo sapiens, UniProt Q04912); conditions: kinase RON, 1 µmol/L single concentration, cited from earlier work
[11] = molecular target: panel of 255 wild-type kinases (Homo sapiens, UniProt O95819); conditions: kinase HGK, 1 µmol/L single concentration, cited from earlier work
[12] = molecular target: panel of 255 wild-type kinases (Homo sapiens, UniProt Q16288); conditions: kinase TRKC, 1 µmol/L single concentration, cited from earlier work
[13] = ref DOI: 10.1371/journal.pone.0092146
[14] = ref DOI: 10.1158/1535-7163.MCT-18-0877

Compound | %-inhibition at 1 µmol/L, CK2α2/β [1, 13] | %-inhibition at 1 µmol/L, LOK [2, 13] | %-inhibition CaMK1α [3, 13] | %-inhibition, MARK3 [4, 13] | %-inhibition at 1 µmol/L, ROCK2 [6, 13] | %-inhibition at 1 µmol/L, IRR [8, 13] | %-inhibition at 1 µmol/L, IKKα [9, 13] | %-inhibition at 1 µmol/L, RON [10, 13] | %-inhibition at 1 µmol/L, CK2α2/β [1, 14] | %-inhibition CaMK1α [3, 14] | %-inhibition, MARK3 [4, 14] | %-inhibition at 1 µmol/L, TYRO3 [5, 14] | %-inhibition at 1 µmol/L, ROCK2 [6, 14] | %-inhibition at 1 µmol/L, IRR [8, 14] | %-inhibition at 1 µmol/L, IKKα [9, 14] | %-inhibition at 1 µmol/L, RON [10, 14] | %-inhibition at 1 µmol/L, HGK [11, 14] | %-inhibition at 1 µmol/L, TRKC [12, 14] | %-inhibition at 1 µmol/L, LOK [2, 14] | %-inhibition ALK [7, 14] | other results
CCCS(=O)(=O)Nc1ccc(F)c(C(=O)c2c[nH]c3ncc(-c4ccc(Cl)cc4)cc23)c1F [vemurafenib] | -6.56% | -1% | -3.18% | -0.226% | -0.177% | 21% | -1.89% | -2% | – | – | – | – | – | – | – | – | – | – | – | – | %-inhibition at 1 µmol/L, TYRO3 [5, 13]: 3.16%; %-inhibition ALK [7, 13]: 1.14%; %-inhibition at 1 µmol/L, HGK [11, 13]: 26%; %-inhibition at 1 µmol/L, TRKC [12, 13]: 5%
CC(=O)Nc1cccc(-n2c(=O)n(C3CC3)c(=O)c3c(Nc4ccc(I)cc4F)n(C)c(=O)c(C)c32)c1 [trametinib] | -5.29% | 12% | -2% | -3.21% | 3% | 1.35% | 2.63% | -6.44% | – | – | – | – | – | – | – | – | – | – | – | – | %-inhibition at 1 µmol/L, TYRO3 [5, 13]: -2.65%; %-inhibition ALK [7, 13]: -2.82%; %-inhibition at 1 µmol/L, HGK [11, 13]: -3.71%; %-inhibition at 1 µmol/L, TRKC [12, 13]: -7.43%
CCc1cc2c(cc1N1CCC(N3CCOCC3)CC1)C(C)(C)c1[nH]c3cc(C#N)ccc3c1C2=O [alectinib] | – | – | – | – | – | – | – | – | -3% | 2.11% | 9% | 30% | 4.54% | 57% | -0.856% | 10% | 20% | 31% | – | – | –
CC(C)(C)c1nc(-c2cccc(NS(=O)(=O)c3c(F)cccc3F)c2F)c(-c2ccnc(N)n2)s1 [dabrafenib] | – | – | – | 4% | 14% | 10% | – | 37% | – | – | – | – | – | – | – | – | – | – | – | – | %-inhibition at 1 µmol/L, HGK [11, 13]: 7%; %-inhibition at 1 µmol/L, TRKC [12, 13]: 81%
CC#CC(=O)N1CCC[C@H]1c1nc(-c2ccc(C(=O)Nc3ccccn3)cc2)c2c(N)nccn12 [acalabrutinib] | – | – | – | – | – | – | – | – | 10% | -4.29% | -2.57% | 3% | -2.29% | -0.87% | -1.45% | 8% | -1.42% | 11% | 3.37% | 5.27% | –
O=C(c1ccc(F)c(F)c1Nc1ccc(I)cc1F)N1CC(O)([C@@H]2CCCCN2)C1 [cobimetinib] | – | – | – | – | – | – | – | – | -6% | 9% | -1.51% | 4.55% | 3.55% | -0.403% | 1.07% | -9% | 2.27% | -1.37% | 10% | 5% | –
Cc1cc(Nc2ncc(Cl)c(Nc3ccccc3S(=O)(=O)C(C)C)n2)c(OC(C)C)cc1C1CCNCC1 [ceritinib] | – | – | – | – | – | – | – | – | -6% | 37% | 10% | 7% | – | 102% | -0.91% | 9% | 10% | 9% | 75% | 99% | –
CO[C@@H]1[C@H](N(C)C(=O)c2ccccc2)C[C@H]2O[C@]1(C)n1c3ccccc3c3c4c(c5c6ccccc6n2c5c31)C(=O)NC4 [midostaurin] | – | – | – | – | – | – | – | – | 2% | – | – | 31% | 38% | 26% | -0.107% | 22% | 97% | – | 98% | 87% | –
C[C@@H](Oc1cc(-c2cnn(C3CCNCC3)c2)cnc1N)c1c(Cl)ccc(F)c1Cl [crizotinib] | -10% | 98% | 0.734% | 41% | 4.25% | – | -1.78% | – | – | – | – | – | – | – | – | – | – | – | – | – | –
